Tests used:
[1] = target: RPN13 (Homo sapiens, UniProt Q16186); experiment: Biochemical (alpha signal) assay for inhibitors that disrupt the binding of RPN13 with poly-ubiquitinylation; details: FIG. 9C
Text: The assay was optimized based on concentrations of the target inhibitors, concentrations of compound RA190, and in view of the alpha signal. The conditions for the biochemical assay are recognized by those of ordinary skill in the art.

[2] = test system: HL60 (human leukemia) cells; experiment: Relative cell growth by cell count, HL60 cells (negative control line); assay type: cell-based; details: concentrations between 0 and 10 μM, after 10 days, effect with increased concentration
Description: (§1) FIGS. 12A-12D show a Western blot of an assay where MOLM 13 cells were treated with exemplary DOT1L degraders and then the cell numbers were counted over time to confirm the cellular activity of the cells. FIGS. 12A-12D show the relative cell growth (%), based on a cell count of acute myeloid leukemia cells upon the treatment of Molm13 PA cells, Molm13 RE cells, and human leukemia (HL60; as negative control) cells with exemplary DOT1L degraders at various concentrations in for 10 days.
(§2) Molm13 PA (acute myeloid leukemia), Molm13 RE (acute myeloid leukemia), and HL60 (human leukemia) cells were treated with exemplary thalidomide-based, DOT1L degrader compounds DOT1L-6, DOT1L-7, DOT1L-8, and RA190 at various concentrations between 0 and 10 μM. The relative cell growth of the Molm13 PA, Molm13 RE, and HL60 cells was measured to analyze cellular activity after 10 days.

[3] = test system: Molm13 PA and Molm13 RE (acute myeloid leukemia) cells; experiment: Relative cell growth by cell count, Molm13 PA and Molm13 RE cells; assay type: cell-based; details: concentrations between 0 and 10 μM, after 10 days, effect with increased concentration
Description: as §1, §2

RPN13, sequence (Q16186 whole entry): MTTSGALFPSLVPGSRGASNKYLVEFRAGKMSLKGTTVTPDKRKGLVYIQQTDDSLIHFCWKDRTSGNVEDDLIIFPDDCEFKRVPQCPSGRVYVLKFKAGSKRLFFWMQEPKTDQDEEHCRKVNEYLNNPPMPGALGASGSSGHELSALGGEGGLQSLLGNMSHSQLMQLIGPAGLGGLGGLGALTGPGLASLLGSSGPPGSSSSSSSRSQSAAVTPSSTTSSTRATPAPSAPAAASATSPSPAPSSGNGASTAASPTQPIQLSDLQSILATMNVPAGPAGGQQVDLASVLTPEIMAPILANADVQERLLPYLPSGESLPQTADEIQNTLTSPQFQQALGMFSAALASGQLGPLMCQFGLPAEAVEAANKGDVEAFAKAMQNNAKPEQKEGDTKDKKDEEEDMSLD

Disruption of the binding of RPN13 with poly-ubiquitinylation [1]: can disrupt the binding
Compound: N[C@@H](Cc1ccccc1)C(=O)N1C/C(=C\c2ccc(Cl)c(Cl)c2)C(=O)/C(=C/c2ccc(Cl)c(Cl)c2)C1 [RA190]
Relative cell growth (based on cell count) [2]: reduced cell growth
Relative cell growth (based on cell count) [3]: reduced cell growth

Reference: US12331069B2, “DOT1L degraders and uses thereof” (DANA-FARBER CANCER INSTITUTE, INC., priority 2019, dated 2025)
